Consider 26 molecules from patent US20240417405A1, “Substituted Spiro Derivatives” (Janssen Pharmaceutica NV, priority 2021, published 2024).

The test system of one experiment is MOLM14 cells. The experiment is described as follows: Proliferation assay, spheroid-like growth, MOLM14 (MLL-AF9 rearranged). Format: cell-based, human. As to conditions: Homo sapiens, MOLM-14, 192 h, 8 days, confluence as measure of spheroid size, read-out: spheroid assay_OneTime MOLM14 IC50. The method, boiled down:
(§1)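 Seed cells at linear-growth densities in low-attachment wells; add test compound at several concentrations, normalized to 0.3% DMSO; incubate 8 days at 37 °C; image spheroids and measure confluence; calculate absolute IC50 against DMSO and reference-compound controls.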

The target in experiment [1] is T1, menin/MLL (terbium chelate-labeled menin, FITC-MBM1 peptide) (Homo sapiens, UniProt O00255, T541A).
T1 construct: Menin (a.a 1-610-6xhis tag)
T1 sequence (O00255 with tags, fused parts or gaps T541A): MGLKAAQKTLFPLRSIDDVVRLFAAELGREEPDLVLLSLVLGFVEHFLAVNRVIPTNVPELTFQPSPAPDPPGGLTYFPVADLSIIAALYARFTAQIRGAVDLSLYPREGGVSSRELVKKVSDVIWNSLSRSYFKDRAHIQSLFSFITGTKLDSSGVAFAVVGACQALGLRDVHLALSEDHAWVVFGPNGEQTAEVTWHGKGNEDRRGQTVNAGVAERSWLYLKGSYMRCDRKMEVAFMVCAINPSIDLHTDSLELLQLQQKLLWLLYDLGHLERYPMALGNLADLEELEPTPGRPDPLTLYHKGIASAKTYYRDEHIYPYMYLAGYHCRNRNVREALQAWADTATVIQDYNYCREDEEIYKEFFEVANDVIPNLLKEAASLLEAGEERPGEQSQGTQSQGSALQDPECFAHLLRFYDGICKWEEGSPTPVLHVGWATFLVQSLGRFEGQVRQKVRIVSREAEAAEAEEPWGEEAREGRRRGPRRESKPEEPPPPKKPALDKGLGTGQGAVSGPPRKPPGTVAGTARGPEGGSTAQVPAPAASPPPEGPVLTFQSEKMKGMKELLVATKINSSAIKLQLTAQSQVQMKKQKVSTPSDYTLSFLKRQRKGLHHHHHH
As to the kind of experiment: Menin/MLL homogenous time-resolved fluorescence (HTRF) assay. Type of experiment: binding. The conditions noted are these: 30 min incubation. A digest of the protocol: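 Percent inhibition, calculated from the 520/490 nm HTRF ratio against high and low controls, was fitted for IC50 with a 0.1 nM detection limit. Reactions held 200 pM Tb-menin and 75 nM FITC-MBM1 in pH 7.5 Tris buffer with 0.5% DMSO.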

The test system of a further experiment is KO-52 cells. As to the kind of experiment: Proliferation assay, spheroid-like growth, KO-52 (MLL wildtype control cell line). Type of experiment: cell-based, human. The conditions noted are these: Homo sapiens, 192 h, KO-52 control cells, 8 days, confluence as measure of spheroid size; read-out: spheroid assay_OneTime KO-52 IC50. A digest of the protocol:
as §1

The term IC50 denotes the midpoint of a concentration-inhibition curve. Take `CC(C)[C@@H]([C@H]1C[C@]2(COC(=O)N2)C1)N1CC2(CCN(c3ncnnc3Oc3ccc(F)cc3-c3ncccc3C3CC3)C2)C1` (single isomer, unassigned) [Compound 322]: the figures for the IC50 (with MOLM14 cells; in experiment [1]; with KO-52 cells) were 0.03 µM, 0.0003 µM and over 15 µM, respectively.

Regarding `CC(C)[C@@H]([C@H]1C[C@]2(COC(=O)N2)C1)N1CC2(CCN(c3ncnnc3Oc3ccc(F)cc3-c3nnccc3C3CC3)C2)C1` (single isomer, unassigned) [Compound 324], the figures for the IC50 (with MOLM14 cells; in experiment [1]; in the experiment with KO-52 cells) were over 0.94 µM, 0.117 µM and over 15 µM, respectively.

On to `CC(C)[C@H]([C@H]1C[C@@H](N2CCC3(COC3)C2)C1)N1CC2(CCN(c3ncnnc3Oc3ccc(F)cc3-c3cncnc3C3CC3)C2)C1` (single isomer, unassigned) [Compound 325], for which the figures for the IC50 (with MOLM14 cells; in experiment [1]; in the experiment on KO-52 cells) were 0.004 µM, 0.0001 µM and 4.98 µM, respectively.

`COC1(C(=O)N[C@H]2C[C@@H]([C@@H](C(C)C)N3CC4(CCN(c5ncnnc5Oc5ccc(F)cc5-c5cncnc5C5CC5)C4)C3)C2)CC1` (single isomer, unassigned) [Compound 330]: the IC50 came to 0.13 µM with MOLM14 cells, 0.0004 µM in experiment [1] and 5.9 µM in the experiment on KO-52 cells.

For the molecule `CO[C@H]1CCN([C@H]2C[C@@H](C(C(C)C)N3CC4(CCN(c5ncnnc5Oc5ccc(F)cc5-c5nnccc5C5CC5)C4)C3)C2)C1` (single isomer, unassigned) [Compound 331], the IC50 is 0.003 µM in the experiment with MOLM14 cells, 0.0002 µM in experiment [1] and 2.85 µM with KO-52 cells.

With `CC(C)[C@H](C1CCN(CC2COC2)CC1)N1CC2(CCN(c3ncnnc3Oc3ccc(F)cc3-c3cnc(C#N)nc3C3CC3)C2)C1` (single isomer, unassigned) [Compound 333], the IC50 was 0.038 µM in the experiment with MOLM14 cells, 0.0001 µM in experiment [1] and 0.82 µM in the experiment with KO-52 cells.

As to `Fc1ccc(Oc2nncnc2N2CCC3(C2)CN([C@H](C2CCN(CC4COC4)CC2)C24CC(C2)C4)C3)c(-c2cncnc2C2CC2)c1` (single isomer, unassigned) [Compound 335], the IC50 in the experiment with MOLM14 cells came to 0.03 µM; in experiment [1], 0.0002 µM; with KO-52 cells, 3.24 µM.

For `Fc1ccc(Oc2nncnc2N2CCC3(C2)CN([C@@H](C2CCN(CC4COC4)CC2)C24CC(C2)C4)C3)c(-c2cncnc2C2CC2)c1` (single isomer, unassigned) [Compound 336], the IC50 in the experiment with MOLM14 cells is 0.18 µM; in experiment [1], 0.0006 µM; with KO-52 cells it was 7.65 µM.

As for `O=c1cc(C2CC2)c(-c2cc(F)ccc2Oc2nncnc2N2CCC3(C2)CN([C@@H](C2CCN(CC4COC4)CC2)C24CC(C2)C4)C3)n[nH]1` (single isomer, unassigned) [Compound 339], the results for the IC50 (with MOLM14 cells; in experiment [1]; in the experiment on KO-52 cells) were over 0.94 µM, 0.0004 µM and over 15 µM, respectively.

With `CS(=O)(=O)C1CCN([C@H]2C[C@@H]([C@@H](N3CC4(CCN(c5ncnnc5Oc5ccc(F)cc5-c5cncnc5C5CC5)C4)C3)C34CC(C3)C4)C2)CC1` (single isomer, unassigned) [Compound 341], the IC50 with MOLM14 cells is over 0.94 µM; in experiment [1] it was 0.003 µM; with KO-52 cells, over 15 µM.

For `CC(=O)N[C@H]1C[C@@H]([C@H](N2CC3(CCN(c4ncnnc4Oc4ccc(F)cc4-c4cncnc4C4CC4)C3)C2)C23CC(C2)C3)C1` (single isomer, unassigned) [Compound 342], the IC50 came to 0.082 µM with MOLM14 cells, 0.0003 µM in experiment [1] and 5.84 µM with KO-52 cells.

In the case of `CC(=O)N[C@H]1C[C@@H]([C@@H](C(C)C)N2CC3(CCN(c4ncnnc4Oc4ccc(F)cc4-c4cnc(C#N)nc4C4CC4)C3)C2)C1` (single isomer, unassigned) [Compound 343], the half-maximal inhibitory concentration (IC50) in the experiment with MOLM14 cells stood at 0.015 µM; in experiment [1] it was 0.0002 µM; in the experiment on KO-52 cells, 1.14 µM.

`CC(C)[C@@H]([C@H]1CC[C@@H](NC(=O)C2CC2)C1)N1CC2(CCN(c3ncnnc3Oc3ccc(F)cc3-c3cncnc3C3CC3)C2)C1` (single isomer, unassigned) [Compound 344]: the IC50 in the experiment on MOLM14 cells came to 0.054 µM; in experiment [1] it was 0.0001 µM; in the experiment on KO-52 cells, 1.59 µM.

`CC(C)[C@H]([C@H]1C[C@H](N2CCC2)C1)N1CC2(CCN(c3ncnnc3Oc3ccc(F)cc3-c3cncnc3C3CC3)C2)C1` (single isomer, unassigned) [Compound 345]: the IC50 amounted to 0.055 µM in the experiment on MOLM14 cells, 0.001 µM in experiment [1] and 7.4 µM with KO-52 cells.

On to `CC(C)[C@@H]([C@H]1C[C@H](N2CCC2)C1)N1CC2(CCN(c3ncnnc3Oc3ccc(F)cc3-c3cncnc3C3CC3)C2)C1` (single isomer, unassigned) [Compound 346], for which the figures for the IC50 (in the experiment with MOLM14 cells; in experiment [1]; with KO-52 cells) were 0.7 µM, 0.0023 µM and over 15 µM, respectively.

For `CC(C)[C@H]([C@H]1C[C@@H](N(C)CCC(=O)N(C)C)C1)N1CC2(CCN(c3ncnnc3Oc3ccc(F)cc3-c3cncnc3C3CC3)C2)C1` (single isomer, unassigned) [Compound 348], the values for the half-maximal inhibitory concentration (IC50) (in the experiment with MOLM14 cells; in experiment [1]; in the experiment on KO-52 cells) were 0.004 µM, 0.0002 µM and 10.2 µM, respectively.

On to `CC(C)[C@H](C1CCN(C[C@H]2C[C@@](C)(O)C2)CC1)N1CC2(CCN(c3ncnnc3Oc3ccc(F)cc3-c3cccnc3C3CC3)C2)C1` (single isomer, unassigned) [Compound 351], for which the IC50 in the experiment with MOLM14 cells was 0.02 µM; in experiment [1] it was 0.0001 µM; in the experiment with KO-52 cells it was 1.1 µM.

Regarding `CC(C)[C@H](C1CN(CC2COC2)C1)N1CC2(CCN(c3ncnnc3Oc3ccc(F)cc3-c3cncnc3C3CC3)C2)C1` (single isomer, unassigned) [Compound 354], the IC50 is 2.43 µM in the experiment on MOLM14 cells, 0.0074 µM in experiment [1] and over 15 µM with KO-52 cells.

Take `CCC(=O)N[C@H]1C[C@@H]([C@@H](C(C)C)N2CC3(CCN(c4ncnnc4Oc4ccc(F)cc4-c4cncnc4C4CC4)C3)C2)C1` (single isomer, unassigned) [Compound 356]: the IC50 is 0.011 µM in the experiment with MOLM14 cells, 0.0003 µM in experiment [1] and over 15 µM in the experiment with KO-52 cells.

Regarding `CC(C)[C@H](C1CCN(C[C@H]2C[C@@H](O)C2)CC1)N1CC2(CCN(c3ncnnc3Oc3ccc(F)cc3-c3cncnc3C3CC3)C2)C1` (single isomer, unassigned) [Compound 357], the half-maximal inhibitory concentration (IC50) in the experiment with MOLM14 cells came to 0.045 µM; in experiment [1], 0.0001 µM; in the experiment on KO-52 cells, 9.79 µM.

For `CC(C)[C@H](C1CCN(C[C@H]2C[C@H](O)C2)CC1)N1CC2(CCN(c3ncnnc3Oc3ccc(F)cc3-c3cncnc3C3CC3)C2)C1` (single isomer, unassigned) [Compound 358], the IC50 in the experiment with MOLM14 cells turned out to be 0.023 µM; in experiment [1], 0.0001 µM; in the experiment with KO-52 cells, 2.21 µM.

`CC(=O)N1CC2(C1)CN([C@H]1C[C@@H]([C@H](C(C)C)N3CC4(CCN(c5ncnnc5Oc5ccc(F)cc5-c5cnc(C)cc5C5CC5)C4)C3)C1)C2` (single isomer, unassigned) [Compound 371]: the IC50 in the experiment on MOLM14 cells turned out to be 0.003 µM; in experiment [1], 0.00015 µM; in the experiment with KO-52 cells, 10.1 µM.

As to `CC(=O)N1CC2(C1)CN([C@H]1C[C@@H]([C@H](C(C)C)N3CC4(CCN(c5ncnnc5Oc5ccc(F)cc5-c5ncc(C)cc5C5CC5)C4)C3)C1)C2` (single isomer, unassigned) [Compound 373], the IC50 amounted to 0.0076 µM with MOLM14 cells, 0.00077 µM in experiment [1] and 5.41 µM in the experiment on KO-52 cells.

Consider `CC(=O)Nc1nccc(N[C@H]2C[C@@H]([C@@H](C(C)C)N3CC4(CCN(c5ncnnc5Oc5ccc(F)cc5-c5cncnc5C5CC5)C4)C3)C2)n1` (single isomer, unassigned) [Compound 405], for which the IC50 in the experiment with MOLM14 cells is 0.003 µM; in experiment [1], 0.00022 µM; in the experiment on KO-52 cells, 7.57 µM.

Consider `CC(C)[C@H]([C@H]1C[C@@H](Nc2ncc(C(=O)N(C)C)o2)C1)N1CC2(CCN(c3ncnnc3Oc3ccc(F)cc3-c3cncnc3C3CC3)C2)C1` (single isomer, unassigned) [Compound 435], for which the figures for the IC50 (with MOLM14 cells; in experiment [1]; with KO-52 cells) were 0.003 µM, 0.00017 µM and 2.47 µM, respectively.

Turning to `CNC(=O)c1cnc(N[C@H]2C[C@@H](C(C(C)C)N3CC4(CCN(c5ncnnc5Oc5ccc(F)cc5-c5cncnc5C5CC5)C4)C3)C2)o1` (single isomer, unassigned) [Compound 436], the IC50 with MOLM14 cells was 0.0099 µM; in experiment [1], 0.00036 µM; in the experiment with KO-52 cells, 5.97 µM.
